Data on five compounds can be found in ChEMBL document CHEMBL5465560, “Selectivity Literature for EUbOPEN Chemogenomic Library” (2024).

Structures are written as SMILES.

The target in experiment [1] is Serine/threonine-protein kinase 10 (Homo sapiens) (UniProt O94804). The settings on record: at 10 µM.
Experiment [2] deals with Tyrosine-protein kinase ABL1 (Homo sapiens), P00519 [H396P]. As to the kind of experiment: (§1) Selectivity interaction (KinomeScan (DiscoverX)) EUB0000666a ABL1. The settings on record: at 10 µM.
The subject of experiment [3] is Tyrosine-protein kinase ABL1 (Homo sapiens), P00519 [Q252H]. The experiment is described as §1. The settings on record: at 10 µM.
The test system of experiment [4] is Tyrosine-protein kinase ABL1 (Homo sapiens), P00519 [E255K]. The experiment is described as §1. The settings on record: at 10 µM.
Experiment [5] relates to Tyrosine-protein kinase ABL1 (Homo sapiens), P00519 [T315I]. Described as §1. The settings on record: at 10 µM.
The subject of experiment [6] is Tyrosine-protein kinase ABL1 (Homo sapiens), P00519 [F317L]. The experiment is described as §1. The settings on record: at 10 µM.
For experiment [7], the system named is Tyrosine-protein kinase ABL1 (Homo sapiens), P00519 [F317I]. Described as §1. The settings on record: at 10 µM.
Experiment [8] has as its target Tyrosine-protein kinase ABL1 (Homo sapiens, UniProt P00519). The description is as §1. The settings on record: at 10 µM.
Experiment [9] deals with Myosin light chain kinase, smooth muscle (Homo sapiens, UniProt Q15746). Description: Selectivity interaction (KinomeScan (DiscoverX)) EUB0000666a MYLK. The settings on record: at 10 µM.
The nature of experiment [10]: Selectivity interaction (Kinase panel (Enzyme activity assay)) EUB0000612a IGF1.
In experiment [11] the target is T1, Phosphatidylinositol 3-kinase C2 domain-containing subunit gamma (Homo sapiens) (UniProt O75747).
T1 sequence (whole entry): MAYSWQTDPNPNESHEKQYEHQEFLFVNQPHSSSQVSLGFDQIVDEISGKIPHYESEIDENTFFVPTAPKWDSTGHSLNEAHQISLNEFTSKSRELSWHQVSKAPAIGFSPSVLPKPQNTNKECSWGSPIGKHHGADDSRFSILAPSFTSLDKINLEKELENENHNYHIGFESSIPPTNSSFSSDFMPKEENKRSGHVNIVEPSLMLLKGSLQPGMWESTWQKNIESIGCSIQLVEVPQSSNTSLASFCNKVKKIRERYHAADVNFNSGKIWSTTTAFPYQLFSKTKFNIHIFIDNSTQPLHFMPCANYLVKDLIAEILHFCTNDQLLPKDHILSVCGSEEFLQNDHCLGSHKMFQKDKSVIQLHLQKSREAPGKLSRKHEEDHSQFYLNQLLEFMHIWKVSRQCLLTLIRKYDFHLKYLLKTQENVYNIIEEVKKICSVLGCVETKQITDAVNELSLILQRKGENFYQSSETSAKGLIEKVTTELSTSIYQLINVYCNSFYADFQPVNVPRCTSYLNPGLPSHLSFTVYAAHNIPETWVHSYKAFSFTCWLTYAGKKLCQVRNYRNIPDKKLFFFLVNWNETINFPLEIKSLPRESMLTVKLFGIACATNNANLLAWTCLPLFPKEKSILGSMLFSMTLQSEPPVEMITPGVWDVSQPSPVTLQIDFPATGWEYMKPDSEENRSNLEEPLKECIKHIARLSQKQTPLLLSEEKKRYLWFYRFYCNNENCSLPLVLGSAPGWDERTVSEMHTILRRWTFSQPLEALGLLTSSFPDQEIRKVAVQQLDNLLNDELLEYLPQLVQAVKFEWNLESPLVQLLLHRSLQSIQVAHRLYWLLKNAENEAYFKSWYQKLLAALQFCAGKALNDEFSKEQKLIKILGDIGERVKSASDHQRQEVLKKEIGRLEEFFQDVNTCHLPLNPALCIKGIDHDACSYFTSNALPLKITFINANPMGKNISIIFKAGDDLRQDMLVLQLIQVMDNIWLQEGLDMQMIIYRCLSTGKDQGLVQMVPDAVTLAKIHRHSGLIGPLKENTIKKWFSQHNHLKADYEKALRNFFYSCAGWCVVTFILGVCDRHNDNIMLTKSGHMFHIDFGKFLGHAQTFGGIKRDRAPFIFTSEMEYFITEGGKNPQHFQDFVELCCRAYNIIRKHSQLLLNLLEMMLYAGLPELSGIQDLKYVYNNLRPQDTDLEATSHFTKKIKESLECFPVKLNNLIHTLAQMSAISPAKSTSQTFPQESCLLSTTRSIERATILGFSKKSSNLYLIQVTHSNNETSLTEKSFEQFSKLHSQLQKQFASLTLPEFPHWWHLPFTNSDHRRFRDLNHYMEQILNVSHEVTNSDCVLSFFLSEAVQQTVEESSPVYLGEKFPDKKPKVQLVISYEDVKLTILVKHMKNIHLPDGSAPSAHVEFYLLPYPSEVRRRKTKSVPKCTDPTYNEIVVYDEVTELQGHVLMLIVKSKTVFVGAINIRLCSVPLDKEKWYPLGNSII
As to the kind of experiment: Selectivity interaction (KinomeScan (DiscoverX)) EUB0000092b PIK3C2G. The settings on record: at 10 µM.

The target of experiment [12] is T2, Inhibitor of nuclear factor kappa-B kinase subunit epsilon (Homo sapiens) (UniProt Q14164).
T2 sequence (whole entry): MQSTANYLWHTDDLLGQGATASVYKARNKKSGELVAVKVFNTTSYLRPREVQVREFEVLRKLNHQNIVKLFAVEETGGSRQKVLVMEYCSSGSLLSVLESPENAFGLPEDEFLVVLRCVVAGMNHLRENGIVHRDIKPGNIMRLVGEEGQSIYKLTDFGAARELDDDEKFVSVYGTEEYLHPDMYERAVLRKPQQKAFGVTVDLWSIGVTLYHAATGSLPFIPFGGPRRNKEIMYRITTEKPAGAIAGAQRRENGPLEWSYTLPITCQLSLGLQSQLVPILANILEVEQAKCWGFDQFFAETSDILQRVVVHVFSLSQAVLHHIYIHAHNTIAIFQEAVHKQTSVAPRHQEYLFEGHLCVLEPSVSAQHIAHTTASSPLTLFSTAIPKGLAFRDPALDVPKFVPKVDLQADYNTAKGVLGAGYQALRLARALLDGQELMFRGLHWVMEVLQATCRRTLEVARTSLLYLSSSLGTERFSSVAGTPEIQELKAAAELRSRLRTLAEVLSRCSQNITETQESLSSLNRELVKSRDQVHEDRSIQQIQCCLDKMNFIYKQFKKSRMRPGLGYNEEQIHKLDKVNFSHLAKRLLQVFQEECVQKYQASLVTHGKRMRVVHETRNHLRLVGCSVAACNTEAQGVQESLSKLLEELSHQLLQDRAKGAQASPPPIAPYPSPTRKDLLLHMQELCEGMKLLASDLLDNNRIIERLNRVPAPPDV
Description: Selectivity interaction (KinomeScan (DiscoverX)) EUB0000229b IKBKE. The settings on record: at 10 µM.

Experiment [13] concerns Hepatocyte growth factor receptor (Homo sapiens), P08581 [Y1235D]. As to the kind of experiment: (§2) Selectivity interaction (KinomeScan (DiscoverX)) EUB0000229b MET. The settings on record: at 1 µM.
Experiment [14] addresses Hepatocyte growth factor receptor (Homo sapiens, UniProt P08581). The description is as §2. The settings on record: at 10 µM.
The test system of experiment [15] is Hepatocyte growth factor receptor (Homo sapiens), P08581 [M1250T]. The experiment is described as §2. The settings on record: at 1 µM.
Sequence of Hepatocyte growth factor receptor (Homo sapiens), P08581 [M1250T] (P08581 whole entry M1250T): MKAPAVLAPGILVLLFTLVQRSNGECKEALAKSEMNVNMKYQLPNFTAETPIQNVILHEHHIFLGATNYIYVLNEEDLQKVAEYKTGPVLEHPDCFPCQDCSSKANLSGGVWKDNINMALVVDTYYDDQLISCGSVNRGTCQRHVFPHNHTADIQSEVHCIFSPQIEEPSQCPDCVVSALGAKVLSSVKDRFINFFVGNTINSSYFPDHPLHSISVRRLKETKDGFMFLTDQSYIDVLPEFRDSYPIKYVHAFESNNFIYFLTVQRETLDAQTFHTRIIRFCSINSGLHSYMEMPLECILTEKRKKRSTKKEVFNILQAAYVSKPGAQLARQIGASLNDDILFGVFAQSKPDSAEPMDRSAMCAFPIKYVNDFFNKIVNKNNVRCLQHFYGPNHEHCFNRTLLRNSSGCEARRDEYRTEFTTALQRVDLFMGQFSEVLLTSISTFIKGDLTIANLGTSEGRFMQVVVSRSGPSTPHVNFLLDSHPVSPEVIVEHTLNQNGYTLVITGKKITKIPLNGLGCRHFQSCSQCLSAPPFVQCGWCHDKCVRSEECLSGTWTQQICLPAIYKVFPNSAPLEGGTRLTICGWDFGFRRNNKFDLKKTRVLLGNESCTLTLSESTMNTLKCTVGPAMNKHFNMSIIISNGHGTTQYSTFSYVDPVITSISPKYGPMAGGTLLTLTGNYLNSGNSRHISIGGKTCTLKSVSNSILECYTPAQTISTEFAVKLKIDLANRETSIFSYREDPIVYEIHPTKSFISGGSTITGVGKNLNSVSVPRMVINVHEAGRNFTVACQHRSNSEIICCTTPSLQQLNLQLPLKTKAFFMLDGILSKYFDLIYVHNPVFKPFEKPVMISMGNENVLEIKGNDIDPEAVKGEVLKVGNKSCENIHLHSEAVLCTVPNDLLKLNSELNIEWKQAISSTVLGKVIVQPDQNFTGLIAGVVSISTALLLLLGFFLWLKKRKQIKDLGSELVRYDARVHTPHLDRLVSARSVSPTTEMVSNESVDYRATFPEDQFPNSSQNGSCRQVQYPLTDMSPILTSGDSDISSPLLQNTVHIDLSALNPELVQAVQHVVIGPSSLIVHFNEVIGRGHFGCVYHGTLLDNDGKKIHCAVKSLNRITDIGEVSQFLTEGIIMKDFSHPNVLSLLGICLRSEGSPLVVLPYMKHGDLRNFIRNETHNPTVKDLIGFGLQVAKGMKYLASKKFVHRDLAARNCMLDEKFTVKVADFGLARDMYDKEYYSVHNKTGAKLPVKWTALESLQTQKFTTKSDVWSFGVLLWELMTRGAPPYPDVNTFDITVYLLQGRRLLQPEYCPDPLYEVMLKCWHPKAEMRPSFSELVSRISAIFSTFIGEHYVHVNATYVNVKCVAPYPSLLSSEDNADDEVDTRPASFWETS

Sequence of Hepatocyte growth factor receptor (P08581 whole entry): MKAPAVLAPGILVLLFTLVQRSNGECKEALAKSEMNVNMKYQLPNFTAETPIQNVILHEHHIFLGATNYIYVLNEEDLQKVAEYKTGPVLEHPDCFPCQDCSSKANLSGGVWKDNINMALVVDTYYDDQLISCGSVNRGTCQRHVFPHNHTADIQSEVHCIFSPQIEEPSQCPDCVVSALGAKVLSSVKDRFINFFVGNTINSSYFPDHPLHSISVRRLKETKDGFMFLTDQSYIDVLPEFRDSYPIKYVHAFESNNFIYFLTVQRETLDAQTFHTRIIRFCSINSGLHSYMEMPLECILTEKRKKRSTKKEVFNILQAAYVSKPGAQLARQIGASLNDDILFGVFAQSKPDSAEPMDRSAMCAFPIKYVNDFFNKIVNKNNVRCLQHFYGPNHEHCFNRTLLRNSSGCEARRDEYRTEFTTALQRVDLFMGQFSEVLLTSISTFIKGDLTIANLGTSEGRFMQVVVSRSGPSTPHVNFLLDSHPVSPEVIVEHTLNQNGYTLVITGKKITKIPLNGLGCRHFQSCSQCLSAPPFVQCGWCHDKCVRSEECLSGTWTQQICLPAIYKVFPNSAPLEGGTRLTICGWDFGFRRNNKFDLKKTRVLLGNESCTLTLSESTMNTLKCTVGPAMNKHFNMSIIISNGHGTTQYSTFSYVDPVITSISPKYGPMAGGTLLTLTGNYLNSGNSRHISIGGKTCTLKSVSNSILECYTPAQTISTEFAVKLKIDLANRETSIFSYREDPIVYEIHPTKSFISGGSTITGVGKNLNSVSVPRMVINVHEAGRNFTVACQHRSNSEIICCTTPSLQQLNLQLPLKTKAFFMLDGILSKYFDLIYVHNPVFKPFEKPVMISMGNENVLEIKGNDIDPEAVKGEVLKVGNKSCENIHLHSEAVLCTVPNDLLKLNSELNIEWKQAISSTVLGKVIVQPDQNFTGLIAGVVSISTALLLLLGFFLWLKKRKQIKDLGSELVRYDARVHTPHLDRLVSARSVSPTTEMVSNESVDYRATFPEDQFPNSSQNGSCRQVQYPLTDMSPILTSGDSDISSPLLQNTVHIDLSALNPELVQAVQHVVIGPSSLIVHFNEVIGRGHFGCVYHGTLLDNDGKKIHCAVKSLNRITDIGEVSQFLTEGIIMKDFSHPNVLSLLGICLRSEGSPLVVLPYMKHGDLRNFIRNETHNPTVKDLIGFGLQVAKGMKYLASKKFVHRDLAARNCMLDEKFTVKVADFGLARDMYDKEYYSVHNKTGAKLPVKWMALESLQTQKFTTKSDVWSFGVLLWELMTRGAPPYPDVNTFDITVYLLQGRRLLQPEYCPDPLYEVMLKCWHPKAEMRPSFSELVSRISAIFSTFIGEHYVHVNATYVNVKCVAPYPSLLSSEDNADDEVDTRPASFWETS
Sequence of Hepatocyte growth factor receptor (Homo sapiens), P08581 [Y1235D] (P08581 whole entry Y1235D): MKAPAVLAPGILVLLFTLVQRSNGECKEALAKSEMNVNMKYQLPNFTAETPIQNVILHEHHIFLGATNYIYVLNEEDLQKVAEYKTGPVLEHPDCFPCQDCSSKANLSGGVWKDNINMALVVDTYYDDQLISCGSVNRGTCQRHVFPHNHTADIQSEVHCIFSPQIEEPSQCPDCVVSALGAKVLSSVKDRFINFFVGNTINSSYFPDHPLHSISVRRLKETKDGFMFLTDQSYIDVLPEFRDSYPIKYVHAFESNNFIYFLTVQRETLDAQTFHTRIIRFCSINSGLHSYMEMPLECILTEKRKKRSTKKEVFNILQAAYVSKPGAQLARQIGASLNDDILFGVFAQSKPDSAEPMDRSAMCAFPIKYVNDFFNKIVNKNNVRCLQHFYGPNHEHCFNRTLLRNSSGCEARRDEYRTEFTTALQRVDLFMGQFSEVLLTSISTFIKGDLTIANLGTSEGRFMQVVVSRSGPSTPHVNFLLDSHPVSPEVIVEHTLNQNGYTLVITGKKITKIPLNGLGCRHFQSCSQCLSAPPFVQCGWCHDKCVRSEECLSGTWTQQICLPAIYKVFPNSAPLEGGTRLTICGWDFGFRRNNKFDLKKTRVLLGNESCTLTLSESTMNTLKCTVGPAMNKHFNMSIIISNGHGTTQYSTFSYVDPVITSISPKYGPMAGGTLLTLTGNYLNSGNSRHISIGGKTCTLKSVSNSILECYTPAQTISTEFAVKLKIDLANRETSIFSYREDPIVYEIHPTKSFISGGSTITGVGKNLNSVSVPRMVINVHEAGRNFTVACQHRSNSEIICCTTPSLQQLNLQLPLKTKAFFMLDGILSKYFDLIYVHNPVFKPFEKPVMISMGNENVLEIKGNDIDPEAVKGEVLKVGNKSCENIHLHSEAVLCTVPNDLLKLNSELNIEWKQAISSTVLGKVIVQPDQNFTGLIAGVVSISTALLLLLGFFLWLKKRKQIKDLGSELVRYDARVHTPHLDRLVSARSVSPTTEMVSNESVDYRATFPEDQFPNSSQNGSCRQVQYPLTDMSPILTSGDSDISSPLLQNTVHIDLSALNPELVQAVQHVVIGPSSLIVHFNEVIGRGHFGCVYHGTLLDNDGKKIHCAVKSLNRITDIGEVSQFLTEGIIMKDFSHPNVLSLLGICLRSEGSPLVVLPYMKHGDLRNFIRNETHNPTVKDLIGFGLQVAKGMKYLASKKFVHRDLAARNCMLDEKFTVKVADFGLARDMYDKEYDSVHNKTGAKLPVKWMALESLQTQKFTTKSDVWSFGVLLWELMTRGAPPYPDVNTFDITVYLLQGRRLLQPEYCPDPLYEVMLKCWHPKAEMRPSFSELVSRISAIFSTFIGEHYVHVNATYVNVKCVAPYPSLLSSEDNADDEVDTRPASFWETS
Sequence of Serine/threonine-protein kinase 10 (Homo sapiens) (O94804 whole entry, looked up): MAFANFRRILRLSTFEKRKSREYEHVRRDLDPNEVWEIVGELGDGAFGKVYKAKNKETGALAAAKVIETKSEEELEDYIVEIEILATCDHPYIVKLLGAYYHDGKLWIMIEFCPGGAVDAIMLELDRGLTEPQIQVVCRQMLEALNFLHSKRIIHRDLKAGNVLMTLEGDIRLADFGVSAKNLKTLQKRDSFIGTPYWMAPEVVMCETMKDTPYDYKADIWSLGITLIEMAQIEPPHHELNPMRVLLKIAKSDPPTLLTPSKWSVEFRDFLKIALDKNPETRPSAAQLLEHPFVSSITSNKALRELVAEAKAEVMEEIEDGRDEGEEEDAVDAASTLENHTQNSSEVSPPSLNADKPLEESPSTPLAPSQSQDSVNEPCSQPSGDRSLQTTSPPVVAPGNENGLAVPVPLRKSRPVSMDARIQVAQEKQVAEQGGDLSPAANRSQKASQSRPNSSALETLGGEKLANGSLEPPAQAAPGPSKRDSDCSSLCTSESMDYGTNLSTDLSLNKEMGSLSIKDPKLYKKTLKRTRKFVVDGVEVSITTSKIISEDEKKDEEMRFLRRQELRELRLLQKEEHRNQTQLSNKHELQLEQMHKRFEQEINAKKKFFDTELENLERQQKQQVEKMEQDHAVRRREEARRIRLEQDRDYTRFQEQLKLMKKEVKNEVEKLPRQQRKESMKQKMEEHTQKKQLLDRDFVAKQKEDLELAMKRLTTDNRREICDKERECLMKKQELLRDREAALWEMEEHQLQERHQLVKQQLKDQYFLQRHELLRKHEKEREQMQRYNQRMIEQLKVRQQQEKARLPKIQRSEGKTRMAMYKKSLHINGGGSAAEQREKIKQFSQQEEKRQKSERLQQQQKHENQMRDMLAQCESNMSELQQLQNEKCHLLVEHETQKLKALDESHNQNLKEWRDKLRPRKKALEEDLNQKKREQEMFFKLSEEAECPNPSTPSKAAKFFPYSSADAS

Take `CCN(CC)CCCCNc1ncc2cc(-c3cc(OC)cc(OC)c3)c(NC(=O)NC(C)(C)C)nc2n1`: the % of control in experiment [1] came out at 100%.
As for `O=C(NOC[C@H](O)CO)c1ccc(F)c(F)c1Nc1ccc(I)cc1F`, the % of control in experiment [2] was 100%; in experiment [3], 100%; in experiment [4], 100%; in experiment [5], 82%; in experiment [6], 100%; in experiment [7], 100%. The figures for the % of control in experiment [8] and in experiment [9] were 77% and 96%, respectively.
`CCc1cccc(CC)c1NC(=O)c1nn(C)c2c1CCc1cnc(Nc3ccc(C(=O)NC4CCN(C)CC4)cc3OC(F)(F)F)nc1-2` displayed an IC50 in experiment [10] greater than 10 µM.
As to `CCC(=O)N1CCN(c2ccc(-n3c(=O)ccc4cnc5ccc(-c6cnc7ccccc7c6)cc5c43)cc2C(F)(F)F)CC1`, the % of control in experiment [11] is 11%.
Turning to `COc1cc(N(C)c2ccnc3ccc(C(F)(F)F)cc23)cc(OC)c1OC`, the % binding in experiment [12] turned out to be 84%; in experiment [13] it was 82%; in experiment [14], 100%; in experiment [15] it was 96%.

A word on the IC50: it is the concentration needed to halve the response being measured. Low readings indicate inhibition by little substance, high ones a need for much substance.
